pKd: −log10 of the molar value. Where two headings read alike, the source gives them in different places.
What was measured:
R2R3 (N279K) tau peptide = R2R3 (N279K) tau peptide (Homo sapiens, UniProt P10636, N596K); assay: SPR titration cycle kinetics, immobilized R2R3 (N279K) peptide; assay type: binding
Protocol: SPR experiments were conducted using the Sierra® SPR‐24 Pro system (Bruker Daltonics, Bremen, Germany), featuring a gold‐coated microfluidic array (24 detection spots, 3 × 8 format). Data acquisition and kinetic analysis were performed using SPR Analyzer 4 software.
All experiments were conducted at 25°C using PBS (pH 7.4) supplemented with 0.05% Tween‐20 and 5% DMSO as the running buffer to ensure assay reproducibility. Assay components, including 96‐well microtiter plates (Part # 1862984; Burker) and Microplate and Reservoir Sealer (Part #1862985; Burker), were used for sample handling and were compatible with the Sierra SPR®‐24 Pro system (Bruker Daltonics, Billerica, MA, USA).
WT and mutant (P301L, V287I, and N279K) tau peptides were dissolved in 10 mM sodium acetate buffer (pH 5.0; Burker) and immobilized onto High‐Capacity Amine Sensor Surfaces (Part #1862614; Bruker) using the Amine Coupling Kit (Part #1862634; Bruker). The sensor surface was preconditioned with a Surface Elution Buffer (Part #1862656; Bruker Daltonics) and 0.1M HCl to remove contaminants and improve binding specificity.
The surface was activated using 400 mM 1‐ethyl‐3‐(3‐dimethylaminopropyl) carbodiimide (Burker) and 50 mM N‐hydroxysuccinimide (Burker), enabling covalent attachment of tau peptides. Unreacted binding sites were blocked with 1M ethanolamine‐HCl (pH 8.5; Burker) to minimize nonspecific interactions. For each experiment, specific sensor spots (A/B/C) on channels 1–8 were designated for tau‐analyte interactions, with corresponding reference spots on the same channel for baseline correction. DMSO calibration solutions (4.6%, 4.8%, 5%, 5.2%, and 5.4%) were prepared for double referencing to compensate for DMSO solvent effects.
PUR and OLC were prepared in PBS (pH 7.4) supplemented with 0.05% Tween‐20 and 5% DMSO. Compound interactions with tau peptides were pre‐screened using a concentration range of 1–100 μM, and subsequent binding kinetics were evaluated at optimized concentrations. For kinetic studies, PUR was tested at […], while OLC was tested at 25–100 μM using two‐fold serial dilutions. Each analyte was sequentially injected, and association and dissociation phases were monitored to determine kinetic parameters.
SPR binding kinetics were assessed using the titration cycle kinetics (TCK) assay, which included consecutive association phases followed by a single dissociation phase. Pre‐assay simulations using the Kinetic Simulator feature of SPR Analyzer 4 software were used to optimize analyte concentration ranges and association/dissociation times. A reference blank injection was included for double referencing, and a single dissociation curve was recorded for the highest analyte concentration.
Sensorgrams were analyzed using the Kinetic Titration model, which was integrated into the global kinetic fitting model of the SPR Analyzer 4 software. This approach allowed for baseline correction and improved the reliability of kinetic parameters, including the Kon, Koff, and KD.
TCK‐derived kinetic parameters were compared across multiple runs and confirmed using Multi Injection Cycle Kinetics to validate reproducibility and accuracy.

[1] = system: preformed R2R3 (N279K) fibrils; assay: Elongation of preformed R2R3 (N279K) fibrils, ThT; assay type: biochemical; conditions: R2R3 N279K pre-aggregated 24 h, compound 10 μM
Protocol: Peptides were pre‐aggregated for 24 h with aggregation kinetics monitored by ThT fluorescence, after which 10 μM PUR or OLC was added, followed by an additional 24–30 h of incubation (Figure 4a). Aggregation kinetics was monitored by ThT fluorescence, and elongation was quantified as the AUC following compound addition, normalized to each replicate's maximum pre‐treatment fluorescence (Figure 4b). […] WT peptide fibril elongation was reduced to 15.5 ± 2.8% (PUR) and 45.2 ± 3.2% (OLC), and P301L peptide fibril elongation was limited to 31.8 ± 0.6% (PUR) and 85.6 ± 2.2% (OLC) (Figure 4b). Fluorescence microscopy imaging further confirmed the presence of reduced ThT‐positive aggregates following the addition of PUR and OLC (Figure S12). Similar inhibition trends, with PUR outperforming OLC, were also observed for V287I and N279K peptides (Figure S12).
Figure S13. […] (a) ThT fluorescence kinetics of pre-aggregated R2R3 (V287I and N279K ) tau peptides treated with PUR or OLC (10 µM). Peptides were first allowed to aggregate for 24 h, followed by compound addition and continued incubation for an additional 24-30 h. […] Curves are normalized to each replicate’s maximum pre-treatment ThT fluorescence. […] (b) Aggregation levels post-treatment, expressed as a percentage of control (untreated fibrils), calculated from the AUC after compound addition. […]

Chain of R2R3 (N279K) tau peptide (P10636 592-653 N596K): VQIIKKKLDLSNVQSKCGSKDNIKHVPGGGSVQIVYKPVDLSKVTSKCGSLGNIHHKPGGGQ

SMILES | Kon (R2R3 (N279K) tau peptide; SPR, R2R3 N279K) | koff (R2R3 (N279K) tau peptide; SPR, R2R3 N279K) | pKd (R2R3 (N279K) tau peptide; SPR, R2R3 N279K peptide immobilized, 25°C, PBS pH 7.4, read-out: KD) | elongation of preformed fibrils [1] | pKd (R2R3 (N279K) tau peptide) | kon (R2R3 (N279K) tau peptide; SPR, R2R3 N279K) | koff (R2R3 (N279K) tau peptide; SPR, R2R3 N279K, read-out: Koff)
C/C=C(/C=O)[C@@H](CC=O)CC(=O)OCCc1ccc(O)cc1 [OLC, oleocanthal] | 34.60 M⁻¹ s⁻¹ | 6.87e-05 s⁻¹ | 5.70 | inhibit the elongation | – | – | –
O=C1c2ccccc2C(=O)c2c(O)c(O)cc(O)c21 [PUR, purpurin] | – | – | – | inhibit the elongation | 5.37 | 70.3 M⁻¹ s⁻¹ | 0.000297 s⁻¹
